One data set relates to T cells. Nature of the data set: Phase 1b TRIMM-2 study: biomarker / pharmacodynamic assessments (T cells, cytokines). Format: in vivo, human. The source says:
BM-localized MM cells were identified and analysed for cell surface marker expression levels by staining 1.0×10^6 cells/mL with HuMax-003 (CD38) FITC (this antibody binds to an epitope distinct from the epitope bound by daratumumab, Janssen Pharmaceuticals), CD138 PE, CD56 PC7, CD45 Krome Orange (all Beckman Coulter), CD269 (BCMA) APC (Biolegend), CD274 (PD-L1) BV421 and CD19 APC-H7 (both Becton Dickinson). BM or PB immune cell subsets were identified and analysed for cell surface marker expression levels by staining 1.0×10^6 cells/mL with CD45 Krome Orange, CD56 PC7 (both Beckman Coulter), CD14 APC-H7, CD19 APC-H7, CD3 V450, CD4 APC-H7 or PE, CD8 FITC, CD45-RA APC. CD127 PE.Cy7, CD62L PE, CD274 […] BV421, CD16 APC, HLA-DR APC-H7 (all Becton Dickinson) and CD25 PE (Dako) or with CD4 BUV395 (BD Biosciences), CD8 BUV737 (BD
Biosciences), PD-1 BV421 (BD Biosciences), TIM-3 BV650 (BD Biosciences), CD3 BV711 (BD Biosciences), CD45RO BV786 (BD Biosciences). CD38 Humab-003-FITC (Janssen). CD45RA PerCP-Cy5.5 (BD Biosciences). HLA-DR PE (BD Biosciences), LAG-3 PE-eF610 (ThermoFisher), CD25 PE-Cy7 (BD Biosciences), CCR7 AF647 (BD Biosciences), CD127 APC-eF780 (ThermoFisher). All BM samples were analysed within 24 hours from the time the sample was collected.
Flow cytometry was performed using a 7-laser LSRFORTESSA (Becton Dickinson). Fluorescent labeled beads (CS&T beads, Becton Dickinson) were used daily to monitor the performance of the flow cytometer and verify optical path and stream flow. […] Compensation beads were used to determine spectral overlap, and compensation was automatically calculated using Diva software. Flow cytometry data were analyzed using FACS Diva software.
Cytokines [interferon-gamma (IFN-γ), interleukin (IL)-2, IL-6, IL-8, IL-10, and tumor necrosis factor-alpha (TNF-α)] in the cell culture supernatants were analyzed using V-Plex proinflammatory Panel 1 Human Kit (Meso Scale Diagnostics), according to the manufacturer’s protocol. […]

Data set [1] is described as follows: Phase 1b TRIMM-2 study: pharmacokinetics (serum concentrations). Format: in vivo, human. The conditions noted are these: in the presence of daratumumab. The procedure: Blood and serum or plasma samples were collected for assessments of pharmacokinetics and immunogenicity (e.g., antibodies to daratumumab, rHuPH20, or talquetamab). Selection of the dose regimen (dose level and frequency) for dose expansion was determined based on the pharmacokinetic and pharmacodynamic information obtained during dose escalation. A sample for the pharmacokinetic and immunogenicity analysis was collected at scheduled time and any time a suspected IRR or CRS event (in case of a CRS event, samples were collected at onset, 24 hours and 72 hours) was observed during the study.
Each serum sample was evenly divided into 3 aliquots (1 for pharmacokinetics and immunogenicity of daratumumab, 1 for pharmacokinetics and immunogenicity of talquetamab, and 1 backup). […] For the pharmacokinetics analysis, serum samples were analyzed to determine concentrations of daratumumab and talquetamab using validated, specific, and sensitive assay methods. Pharmacokinetic parameters include, but are not limited to, area under the curve (AUC)(0-t), AUCtau, Cmax, and Tmax would be calculated if sufficient data were available for estimation. […] For the rHuPH20 immunogenicity assessments, plasma samples were screened for antibodies binding to rHuPH20 and were assessed in confirmatory and titer assays as necessary.

For data set [2], the system named is relapsed or refractory multiple myeloma. The experiment in a line: Phase 1b TRIMM-2 study: best response by IMWG criteria, investigator assessment.
Experimental: A phase 1b, open-label, multicenter, multi-cohort study of talquetamab in combination with subcutaneous (SC) dosing regimens of daratumumab administered to adult subjects with multiple myeloma was carried out. Two treatment combinations also included pomalidomide (and concomitant dexamethasone for at least the initial cycles). In the pomalidomide-containing treatment combinations, dexamethasone administration was required through the first 3 full immunomodulatory agent (IMiD)containing cycles to enhance IMiD-driven antimyeloma effects and serve as pretreatment medication for daratumumab and talquetamab. An overall aim of the study was to evaluate the safety of daratumumab in combination with talquetamab with or without pomalidomide (and concomitant dexamethasone at least in the initial cycles), and to evaluate preliminary antitumor activity. Safety was monitored by a Study Evaluation Team (SET).
The treatments were administered in 28-day cycles. Daratumumab was administered to all subjects by SC injection at a dose of 1800 mg as follows: weekly in Cycles 1-2, every 2 weeks (Q2W) in Cycles 3-6, and every 4 weeks thereafter. Note that a recombinant human hyaluronidase PH20 (rHuPH20) was used to decrease the injection volume required, facilitating the SC administration of daratumumab.
Daratumumab SC (Dara) was administered in combination with different dosage levels of talquetamab (Tal), including Dara 1800 mg + Tal 60 µg/kg SC weekly, Dara 1800 mg + Tal 400 µg/kg SC weekly. Dara 1800 mg + Tal 400 µg/kg SC biweekly starting Cycle 3 Day 1 (Tal 400 µg/kg SC weekly in Cycles 1-2), and Dara 1800 mg + Tal 800 µg/kg SC biweekly. Some subjects in the Dara 1800 mg + Tal 400 µg/kg SC weekly cohort switched to Tal 800 µg/kg biweekly SC dosing after Cycle 3 Day 1. Except for the 60 µg/kg talquetamab SC weekly cohort in which step-up dosing began on Cycle 1 Day 9, step-up doses for talquetamab began on Cycle 1 Day 2. When daratumumab and talquetamab were administered on the same day, daratumumab was administered first. Step-up Dose 1 of talquetamab was administered at least 20 hours after SC daratumumab. Subsequent step-up dose(s), if applicable, and first treatment dose of talquetamab were administered approximately 3 hours after SC daratumumab. Subsequent treatment doses of talquetamab was administered approximately 1 hour after SC daratumumab (when both study drugs are administered on the same day).
Disease evaluations would be performed by a central laboratory (additional samples may be collected for analysis by the local laboratory) until disease progression. […] Subjects that meet all other IMWG criteria for CR, and whose positive IFE is confirmed to be daratumumab interference, are considered complete responders. For subjects with light chain multiple myeloma, both serum and urine IFE and serum FLC assay were performed every 4 weeks. Additional serum samples may be utilized to monitor for potential daratumumab interference with the IFE and response adjudicated per IMWG-based response criteria. Quantitative immunoglobulin (QIg, e.g., IgG, IgA, IgM, IgE, and IgD), M-protein by electrophoresis (SPEP), FLC and IFE measurements in serum and urine and serum β-microglobulin were analyzed by the central laboratory. Disease progression based on one of the laboratory tests alone must be confirmed by at least 1 repeat investigation performed 1 to 3 weeks later. Disease evaluations would continue beyond relapse from CR until disease progression was confirmed. Serum and urine IFE and serum FLC assays would be performed at screening and thereafter when a CR or sCR is suspected (when serum or 24-hour urine M-protein electrophoresis [by SPEP or UPEP] are 0 or non-quantifiable). Development of hypercalcemia (corrected serum calcium >11 mg/dL) may indicate disease progression or relapse if it is not attributable to any other cause.
[3] abbreviates: Tal 400 µg/kg (SC3 and SC6) + 800 µg/kg (SC7 and SC15) with Dara 1800 mg, 56 response evaluable subjects.
Where [4] appears, read: Tal Total (all Tal cohorts with Dara, with or without Pom), n=108 evaluable.

Regarding “daratumumab: anti-CD38 monoclonal antibody approved for MM treatment; HC SEQ ID NO: 13, LC SEQ ID NO: 14; given SC with rHuPH20 [reference compound]”, the “Proportion of CD38+/CD8+ T cells” value in the data set with T cells (after initial daratumumab dosing on C1D1) is recorded as “declined”.

Turning to talquetamab, the “Frequency of CD38+ T cells” value in the data set with T cells (FIG. 4, following talquetamab dosing in the presence of daratumumab 1800 mg) is “increase”. In the data set with T cells (after the initial doses of talquetamab despite concurrent daratumumab dosing), the “CD38+ CD8+ T cells” value is “induction”. For the same substance, the “Pharmacokinetic profile of talquetamab” value in data set [1] was “consistent with the profile of observed in the phase 1 talquetamab monotherapy”. Further, in data set [2] (Overall Total, n=186 evaluable), the “CR or better (sCR + CR)” value is 46 (24.7%), the “Clinical benefit (Overall response + MR)” value is listed as 146 (78.5%), the “Complete response (CR)” value is 28 (15.1%) and the “Minimal response (MR)” value worked out at 0. Also, in data set [2] (Overall Total, n=186 evaluable), the “Not evaluable (NE)” value is 1 (1.2%), the “Overall response (sCR+CR+VGPR+PR)” value is recorded as 146 (78.5%), the “Partial response (PR)” value is 22 (11.8%) and the “Progressive disease (PD)” value is 11 (5.9%). In data set [2] (Overall Total, n=186 evaluable), the “Stringent complete response (sCR)” value is given as 18 (9.7%); the “VGPR or better (sCR + CR + VGPR)” value is on record as 124 (66.7%); the “Very good partial response (VGPR)” value is 78 (41.9%); the “Very good partial response (VGPR), Unconfirmed” value is 11. In addition, in data set [2] (setting [3]), the “CR or better (sCR + CR)” value was 16 (28.6%); the “Clinical benefit (Overall response + MR)” value is recorded as 45 (80.4%); the “Complete response (CR)” value is 9 (16.1%); the “Complete response (CR), Unconfirmed” value is 3. Besides, in data set [2] (setting [3]), the “Minimal response (MR)” value stood at 0, the “Not evaluable (NE)” value is 0, the “Overall response (sCR+CR+VGPR+PR)” value is given as 45 (80.4%) and the “Partial response (PR)” value is recorded as 9 (16.1%). Besides, in data set [2] (setting [3]), the “Partial response (PR), Unconfirmed” value amounted to 4; the “Progressive disease (PD)” value was 3 (5.4%); the “Stringent complete response (sCR)” value was 7 (12.5%); the “Stringent complete response (sCR), Unconfirmed” value came out at 0. In addition, in data set [2] (setting [3]), the “VGPR or better (sCR + CR + VGPR)” value is given as 36 (64.3%); the “Very good partial response (VGPR)” value is listed as 20 (35.7%); the “Very good partial response (VGPR), Unconfirmed” value came out at 5. Also, in data set [2] (setting [4]), the “CR or better (sCR + CR)” value was 28 (25.9%), the “Clinical benefit (Overall response + MR)” value is on record as 89 (82.4%), the “Complete response (CR)” value was 14 (13.0%) and the “Minimal response (MR)” value was 0. In data set [2] (setting [4]), the “Not evaluable (NE)” value was determined as 0, the “Overall response (sCR+CR+VGPR+PR)” value is 89 (82.4%), the “Partial response (PR)” value was 18 (16.7%) and the “Progressive disease (PD)” value is reported as 4 (3.7%). In addition, in data set [2] (setting [4]), the “Stringent complete response (sCR)” value is 14 (13.0%); the “VGPR or better (sCR + CR + VGPR)” value is recorded as 71 (65.7%); the “Very good partial response (VGPR)” value is reported as 43 (39.8%); the “Very good partial response (VGPR), Unconfirmed” value amounted to 13.

Source of the values: US20230295292A1, “METHODS OF TREATING CANCERS AND ENHANCING EFFICACY OF GPRC5DXCD3 BISPECIFIC ANTIBODIES” (Janssen Biotech, Inc., priority 2021, published 2023).
